Source: US5710135A, “Anthracycline prodrugs, method for preparation as well as their use in selective chemotherapy” (Pharmachemie B.V., priority 1995, dated 1998)
Counter-ions that a name gives are not always drawn. Like-named read-outs stand apart in the source and are kept apart here.

Columns and labels:
[1] = system: OVCAR-3 cells; test: Anti-proliferative effect on OVCAR-3 cells (sulforhodamine B protein dye stain); type: cell-based; details: Homo sapiens
Procedure: The anti-proliferative effect of daunorubicin, doxorubicin and idarubicin, and of the prodrugs of examples 1 to 6 on OVCAR-3 cells was determined by measuring cell growth with a protein dye stain (H. J. Haisma et al. Br. J. Cancer 1992, 66, 474-478. Cells were harvested with 0.25 trypsin and 0.2% EDTA in PBS to obtain a single cell suspension and seeded in 96-wells tissue culture plates (2×10^6 cells/mL 10 μL/well, 3 wells per concentration). Drug or prodrug was added (10 μL/well) at different concentrations with a range of 3 or more logs. After incubation for 24 hours, 200 μL of culture medium (supplemented DMEM) was added and the cells were grown for another 72 hours. Cells were fixed with 25% trichloroacetic acid for 1 hour at 4° C. and washed with water. After staining the cells with 0.4% sulforhodamine B in 1% (v/v) acetic acid for 15 min. at room temperature, they were washed with 1% acetic acid and air-dried. The bound dye was solubilized with 10 mM unbuffered Tris and the absorbance was read at 492 nm. The absorbance was linear with cell concentrations from 1,000 to 200,000 cells/well. Separate wells were fixed 24 hours after seeding to substract background staining. The anti-proliferative effects were determined and expressed as IC50 values which are the (pro)drug concentrations that gave 50% growth inhibition when compared to control cell growth.

[2] = biological target: T1, β-glucuronidase (Homo sapiens, UniProt P08236); test: Enzyme hydrolysis half-life with β-glucuronidase; type: biochemical; details: 100 μM prodrug, pH 6.8, 0.03 U/mL β-glucuronidase, 37° C.; read-out: T1/2 (min.) of enzyme hydrolysis
T1 sequence (P08236 23-651): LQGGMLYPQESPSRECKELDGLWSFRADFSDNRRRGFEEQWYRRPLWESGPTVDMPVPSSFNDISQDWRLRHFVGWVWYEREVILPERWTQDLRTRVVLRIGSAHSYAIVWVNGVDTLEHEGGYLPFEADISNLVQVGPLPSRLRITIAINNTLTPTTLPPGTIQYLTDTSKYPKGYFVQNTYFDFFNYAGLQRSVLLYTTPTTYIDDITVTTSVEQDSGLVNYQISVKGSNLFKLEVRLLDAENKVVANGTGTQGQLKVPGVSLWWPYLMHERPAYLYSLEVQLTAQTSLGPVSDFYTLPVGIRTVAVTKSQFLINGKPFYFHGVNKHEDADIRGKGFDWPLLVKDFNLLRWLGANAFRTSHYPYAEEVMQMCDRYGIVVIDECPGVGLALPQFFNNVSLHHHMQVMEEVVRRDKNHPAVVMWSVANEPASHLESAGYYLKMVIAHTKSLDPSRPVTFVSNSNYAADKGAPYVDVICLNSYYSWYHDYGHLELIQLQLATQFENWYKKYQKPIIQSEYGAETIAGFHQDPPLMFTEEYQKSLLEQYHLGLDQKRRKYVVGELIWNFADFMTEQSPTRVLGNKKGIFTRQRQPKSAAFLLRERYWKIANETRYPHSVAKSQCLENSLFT
Procedure: (§1) Half-lifes of enzyme hydrolysis were determined by incubating 100 μM prodrug at pH =6.8 with 0.03 U/mL β-glucuronidase or 0.3 U/mL β-glucosidase or β-galactosidase at 37° C.

[3] = Enzyme hydrolysis half-life with β-glucosidase; type: biochemical; details: 100 μM prodrug, pH 6.8, 0.3 U/mL β-glucosidase, 37° C.; read-out: T1/2 (min.) of enzyme hydrolysis
Procedure: as §1

[4] = OVCAR-3 cells, 24 hours incubation with (pro)drug, then grown another 72 hours, read-out: IC50 (μM), (pro)drug concentration giving 50% growth inhibition
[5] = OVCAR-3, read-out: IC50 (μM), (pro)drug concentration giving 50% growth inhibition

IC50 [1, 4] [µM]	half-life at 100 µM [3] [min]	SMILES	half-life at 100 µM [2] [min]	IC50 [1, 5] [µM]
0.1	–	CC(=O)[C@]1(O)Cc2c(O)c3c(c(O)c2[C@@H](O[C@H]2C[C@H](N)[C@H](O)[C@H](C)O2)C1)C(=O)c1ccccc1C3=O [12c, idarubicin, reference compound]	–	–
> 1	–	CC(=O)[C@]1(O)Cc2c(O)c3c(c(O)c2[C@@H](O[C@H]2C[C@H](NC(=O)OCc4ccc(NC(=O)O[C@@H]5O[C@H](C(=O)O)[C@@H](O)[C@H](O)[C@H]5O)cc4)[C@H](O)[C@H](C)O2)C1)C(=O)c1ccccc1C3=O [1c-para, N-[4-(idarubicin-N-carbonyl-oxymethyl)phenyl] O-β-glucuronyl carbamate sodium salt]	120	–
–	–	COc1cccc2c1C(=O)c1c(O)c3c(c(O)c1C2=O)C[C@@](O)(C(=O)CO)C[C@@H]3O[C@H]1C[C@H](N)[C@H](O)[C@H](C)O1 [12b, doxorubicin, reference compound]	–	1
–	–	COc1cccc2c1C(=O)c1c(O)c3c(c(O)c1C2=O)C[C@@](O)(C(C)=O)C[C@@H]3O[C@H]1C[C@H](N)[C@H](O)[C@H](C)O1 [12a, daunorubicin, reference compound]	–	1.2
> 10	–	COc1cccc2c1C(=O)c1c(O)c3c(c(O)c1C2=O)C[C@@](O)(C(=O)CO)C[C@@H]3O[C@H]1C[C@H](NC(=O)OCc2ccc(NC(=O)O[C@@H]3O[C@H](C(=O)O)[C@@H](O)[C@H](O)[C@H]3O)cc2)[C@H](O)[C@H](C)O1 [1b-para, N-[4-(doxorubicin-N-carbonyl-oxymethyl)phenyl] O-β-glucuronyl carbamate sodium salt]	170	–
20	> 500	COc1cccc2c1C(=O)c1c(O)c3c(c(O)c1C2=O)C[C@@](O)(C(C)=O)C[C@@H]3O[C@H]1C[C@H](NC(=O)OCc2ccc(NC(=O)O[C@@H]3O[C@H](CO)[C@@H](O)[C@H](O)[C@H]3O)cc2)[C@H](O)[C@H](C)O1 [1d-para, N-[4-(daunorubicin-N-carbonyl-oxymethyl)phenyl] O-β-glucosyl carbamate]	–	–

SMILES	IC50 [1, 4] [µM]	half-life at 100 µM [3] [min]	half-life at 100 µM [2] [min]	IC50 [1, 5] [µM]
COc1cccc2c1C(=O)c1c(O)c3c(c(O)c1C2=O)C[C@@](O)(C(C)=O)C[C@@H]3O[C@H]1C[C@H](NC(=O)OCc2ccccc2NC(=O)O[C@@H]2O[C@H](C(=O)O)[C@@H](O)[C@H](O)[C@H]2O)[C@H](O)[C@H](C)O1 [1a-ortho, N-[2-(daunorubicin-N-carbonyl-oxymethyl)phenyl] O-β-glucuronyl carbamate sodium salt]	20	–	125	–
COc1cccc2c1C(=O)c1c(O)c3c(c(O)c1C2=O)C[C@@](O)(C(C)=O)C[C@@H]3O[C@H]1C[C@H](NC(=O)OCc2ccc(NC(=O)O[C@@H]3O[C@H](C(=O)O)[C@@H](O)[C@H](O)[C@H]3O)cc2)[C@H](O)[C@H](C)O1 [1a-para, N-[4-(daunorubicin-N-carbonyl-oxymethyl)phenyl] O-β-glucuronyl carbamate sodium salt]	22	–	135	–
